Experimental data published in patent publication EP2907512A1, “Inhibitors of MMP-12 as antiviral Agents” (COMMISSARIAT A L'ENERGIE ATOMIQUE ET AUX ENERGIES …, priority 2014, dated 2015).

Test system: HeLa cells
Test: IFNα secretion (ELISA) and IFNα immunostaining in CVB3-infected HeLa cells pre-treated with inhibitors
Type: cell-based
Conditions: for IFNα secretion: cells infected with CVB3, ELISA of medium, vs DMSO control

| Compound | intracellular IFNα staining (HeLa cells infected with CVB3 for 4 h, immunostaining) | IFNα secretion |
| --- | --- | --- |
| Cc1ccc(S(=O)(=O)/C=C/C#N)cc1 [Bay11-7082] | greater intracellular IFNα staining | not secreted |
| N#CC(=C(/N)Sc1ccccc1N)/C(C#N)=C(\N)Sc1ccccc1N [Compound U0126] | – | secreted |
